Assay results reported in patent US20090324616A1, “DIFFERENTIAL CYTOKINE EXPRESSION IN HUMAN CANCER” (priority 2006, published 2009).

T1: human Interleukin4 (IL4) (Homo sapiens, UniProt P05112)
T1 sequence (P05112 25-153): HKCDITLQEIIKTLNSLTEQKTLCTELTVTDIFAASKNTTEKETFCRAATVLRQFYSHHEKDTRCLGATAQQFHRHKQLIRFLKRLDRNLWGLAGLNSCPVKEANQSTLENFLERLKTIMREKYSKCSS


What was measured:
[1] = system: Primary (adherent) cells from human colon cancer specimens; assay: Viability of primary (adherent) colon cancer cells exposed to drugs; assay type: cell-based; details: cisplatinum 300 ng/ml, oxaliplatin 100 μM, TRAIL 200 ng/ml; FIG. 6a
Experimental: (§1) Survival and death assays. To evaluate apoptotic events the DNA staining and flow cytometry analysis were performed. The percentage of hypodiploid nuclei was evaluated as described in Stassi et al., Cancer Res. 2003, 63 (20):6784-90. Alternatively, human purified cancer cells were plated in 96-well plates in triplicate at 15,000 cells/well and cultured. The number of viable cells was detected by CellTiter Aqueous Assay Kit (Promega Corporation, WI, USA) following the instructions of manufacturer. HuT78 cells plated at […] and treated with CD95-activating antibody CH11 (200 ng/ml) were used as a positive control for cell death measurement.
(§2) To investigate the sensitivity of colon CSC to chemotherapeutic drugs, the viability of colon CSC spheroids exposed to cisplatinum (300 ng/ml) and oxaliplatin (100 μM) was measured, doses equivalent to those reached during cancer treatment in vivo. In addition, colon CSC were treated with the apoptosis-inducing death ligand TRAIL (200 ng/ml).

colon CSC = assay: Viability of colon CSC spheroids exposed to drugs; assay type: cell-based, human; details: cisplatinum 300 ng/ml, oxaliplatin 100 μM, TRAIL 200 ng/ml, FIG. 6a
Experimental: as §1, §2

[2] = system: colon cancer generated by CSC; assay: IL-4 neutralization in vivo, colon tumours generated by CSC; details: oxaliplatin i.p. once a week for 4 weeks, combined with control IgG; mice
Source text: Tumours were allowed to grow for 10 days (size ˜0.2 cm^3) and then treated intra-tumourally with neutralising antibodies against IL-4 or control IgG twice a week for 3 weeks.

human Interleukin4 (IL4) = molecular target: T1, human Interleukin4 (IL4); assay: IL-4-pull down assay; assay type: binding; details: 4 μg protein immobilized to Streptactin Sepharose, 400 ng IL4, 60 min; FIG. 10
Experimental: To test for specific IL-4 binding of IL4R-Fc and IL4R-IL13R-Fc, 4 μg of both proteins, respectively, were immobilized to Streptactin Sepharose via their Strep-Tag. The immobilized proteins were subsequently incubated for 60 min with 400 ng of recombinantly expressed human Interleukin4 (IL4) in a total volume of 400 μl phosphate buffered saline. Subsequently the beads were washed and bound proteins were specifically eluted with desthiobiotin in a total volume of 40 μl elution buffer. Eluted proteins were finally analysed via SDS-PAGE and Silver staining.

breast cancer stem cells = assay: Apoptosis of breast cancer spheres, combination with doxorubicin; assay type: cell-based; details: 10 μg pre-treatment 24 hrs, then 5 μM doxorubicin 24 hrs; for sensitisation for doxorubicin induced apoptosis compared with IL-4 specific antibody (positive control): FIG. 11B; for amount of apoptotic breast cancer stem cells: compared with Doxorubicin alone, FIG. 11A
Experimental: To test for the ability of IL4R-Fc and IL4R-IL13R-Fc to induce apoptosis, both proteins were added to the growth medium of breast cancer stem cells either alone or in combination with doxorubicin. […] The cells were stained with orange acridine/ethidium bromide (red: dead cells; green: viable cells).

[3] = system: primary colon cancer cells; assay: Primary colon cancer cell viability (MTS), combination with oxaliplatin; assay type: cell-based; details: 10 μg pre-treatment 24 hrs, then 100 μM oxaliplatin 24 hrs; FIG. 11C
Experimental: On primary colon cancer cells the IL4R-Fc and IL4R-IL13R-Fc constructs were tested in combination with oxaliplatin treatment. Primary colon cancer cells pre-treated with PBS (w/o) or 10 μg of IL4R-Fc, IL4R-IL13R-Fc or anti IL4-antibody for 24 hrs and successively exposed for another 24 hrs to 100 μM oxaliplatin. The graphs show the percentage of cell viability measured by MTS analysis (CellTiter 96, Aquos, Promega).

[4] = system: colon, breast, gastric and lung normal cells; assay: Cell growth of normal cells exposed to IL-4; assay type: cell-based, human; details: 20 ng/ml of IL-4; FIG. 3b
Experimental: (§3) Human primary cell purification. Normal and cancer tissues were digested for 2 hours with collagenase (1.5 mg/ml) (Gibco BRL., Grand Island, N.Y.) and hyaluronidase (20 μg/ml) (Sigma Chemical Co., St. Louis, Mo.) as previously described (1). Once digested, cells were maintained on plastic in DMEM medium (EuroClone Ltd., West York, UK) at 37° C. in a humidified atmosphere of 5% CO2. Following 12 further hours of culture, cancer cells were allowed to grow in monolayer for the immunocytochemistry or detached with trypsin+EDTA for functional, protein expression and gene transcript levels analyses. For colon and gastric cells culture, plastic was coated with[…] of collagen (Calbiochem GmbH, Darmstadt, Germany). […]
Survival and death assays. […] The percentage of hypodiploid nuclei was evaluated as described in Stassi et al., Cancer Res. 2003, 63 (20):6784-90. […] The number of viable cells was detected by CellTiter Aqueous Assay Kit (Promega Corporation, WI, USA) following the instructions of manufacturer. […]
In order to investigate the possible involvement of IL-4 on tumour cell survival, colon, breast, gastric and lung normal cells were exposed to 20 ng/ml of IL-4 and analyzed for cell growth.

[5] = system: cFLIP, PED/PEA-15, Bcl-xL and Bcl-2 in normal colon, breast, gastric and lung cells; assay: Anti-apoptotic protein expression in normal cells pre-incubated with IL-4; assay type: cell-based, human; details: gastric and lung cells pre-incubated with IL-4, FIG. 3c
Experimental: as §3
Protein isolation and western blotting analysis. […] Immunoblotting of Abs specific for actin (Ab-1, mouse IgM, Calbiochem, Darmstadt, Germany), CD95L (G2474, mouse IgG1, PharMingen, San Diego), CD95 (C-20, Santa Cruz Biotechnology), cFLIP (NF6 mouse IgG1, Alexis Biochemicals, Switzerland), PED/PEA-15 (rabbit IgG kindly provided by G. Condorelli), Bcl-2 (124, mouse IgG1, Upstate Biotechnology Inc.) and Bcl-XI (H-5, mouse IgG1, Santa Cruz Biotechnology) was detected by HRP-conjugated anti-mouse or anti-rabbit Abs (Amersham Biosciences UK Limited, England) and visualized with the chemiluminescence detection system (SuperSignal West Dura Extended duration Substrate, Pierce, Ill., USA). […]

Molecule | sensitivity in vitro (viability) [1] | sensitivity to drug-induced apoptosis (viability) (colon CSC) | binding of human IL-4 (pull down, SDS-PAGE and Silver staining) (human Interleukin4 (IL4)) | sensitisation for doxorubicin induced apoptosis compared with IL-4 specific antibody (positive control) (breast cancer stem cells) | amount of apoptotic breast cancer stem cells (breast cancer stem cells) | cell viability (MTS) in comparison with oxaliplatin treatment alone [3] | other results
O=C1[O][Pt]2([NH][C@@H]3CCCC[C@H]3[NH]2)[O]C1=O [oxaliplatin] | some sensitivity | significantly resistant |  |  |  |  | tumour size [2]: reduced tumour size
TRAIL | some sensitivity | significantly resistant |  |  |  |  | 
N.N.[Cl][Pt][Cl] [cisplatinum] | some sensitivity | significantly resistant |  |  |  |  | 
IL4R-IL13R-Fc: IL-4-Receptor-alpha extracellular domain fused to IL13-receptor alpha extracellular domain and Fc-part of human IGHG1, with Flexstreptag-II |  |  | specific binding | in the same range | clearly increased | reduced cell viability | 
IL4R-Fc: shortened extracellular domain of IL-4-Receptor-alpha (aa1-aa224) fused to the Fc-part of human IGHG1, with Flexstreptag-II |  |  | specific binding | in the same range | clearly increased | reduced cell viability | 
IL-4: human recombinant IL-4 (Euroclone), used at 20 ng/ml (protein) HKCDITLQEIIKTLNSLTEQKTLCTELTVTDIFAASKNTTEKETFCRAATVLRQFYSHHEKDTRCLGATAQQFHRHKQLIRFLKRLDRNLWGLAGLNSCPVKEANQSTLENFLERLKTIMREKYSKCSS |  |  |  |  |  |  | growth rate of colon, breast and lung normal cells [4]: significantly increased; protein levels of cFLIP, PED/PEA-15, Bcl-xL and Bcl-2 [5]: increased
